ChEMBL document CHEMBL1145122, “Structure-based design of novel guanidine/benzamidine mimics: potent and orally bioavailable factor Xa inhibitors as novel anticoagulants” (J Med Chem, 2003)

Tests used:
[1] = molecular target: Prothrombin (Homo sapiens, UniProt P00734); test: Inhibitory activity against Thrombin
[2] = physchem
[3] = molecular target: Coagulation factor X (Homo sapiens, UniProt P00742); test: Inhibitory activity against Coagulation factor X (FXa)
[4] = molecular target: Trypsin (Homo sapiens, UniProt P07477+P07478+P35030); test: Inhibition of Trypsin; assay type: protein assay
[5] = in vivo; conditions: dog, po
[6] = in vivo; conditions: dog
[7] = in vivo; conditions: dog; remark: listed apart in the source
[8] = physchem; conditions: octanol/water
[9] = in vivo; conditions: dog, po; remark: listed apart in the source
[10] = in vivo; conditions: dog, iv
[11] = physchem; conditions: octanol/water; remark: listed apart in the source
[12] = species on record: Oryctolagus cuniculus; test: Concentration required for inhibition of thrombus formation in rabbit arterial-venous shunt antithrombosis model; assay type: functional, organism-based
[13] = test system: plasma protein binding (Homo sapiens); test: Percentage binding to human plasma proteins
[14] = in vivo; conditions: dog, po; remark: listed apart in the source
[15] = species on record: Oryctolagus cuniculus; test: Dose required for inhibition of thrombus formation in rabbit arterial-venous shunt antithrombosis model; assay type: functional

Sequence of Coagulation factor X (P00742 41-179 limits assumed): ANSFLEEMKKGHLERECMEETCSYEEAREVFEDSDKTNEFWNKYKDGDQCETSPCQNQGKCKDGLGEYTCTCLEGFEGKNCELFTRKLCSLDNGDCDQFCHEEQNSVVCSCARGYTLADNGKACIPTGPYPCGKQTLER
Sequence of Coagulation factor X (P00742 235-488 limits assumed): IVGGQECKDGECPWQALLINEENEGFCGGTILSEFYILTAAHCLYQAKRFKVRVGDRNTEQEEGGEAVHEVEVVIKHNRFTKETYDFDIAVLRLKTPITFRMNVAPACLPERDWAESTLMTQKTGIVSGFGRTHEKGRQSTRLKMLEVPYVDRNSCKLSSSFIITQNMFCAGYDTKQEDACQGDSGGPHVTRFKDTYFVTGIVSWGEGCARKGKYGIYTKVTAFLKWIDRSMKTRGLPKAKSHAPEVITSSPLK

Row | Compound | Ki [1] [µM] | pKa [2] | Ki [3] [µM] | Ki [4] [µM] | other results
1 | COc1ccc(-n2nc(C)cc2C(=O)Nc2ccc(-c3ccccc3S(N)(=O)=O)cc2)cc1 | > 21 | < 0 | 0.011 | > 1.6 | half-life [5]: 4.5 h; Vd [6]: 0.52 L/kg; clearance [7]: 1.5 mL/min/kg; logP [8]: 2.9; bioavailability [9]: 48%; half-life [10]: 4.5 h
2 | Cc1cc(C(=O)Nc2ccc(-c3ccccc3S(N)(=O)=O)cc2)n(CCCCN)n1 | > 21 | 10 | 12 | – | –
3 | Cc1cc(C(=O)Nc2ccc(-c3ccccc3S(N)(=O)=O)cc2)n(-c2cccc(B(O)O)c2)n1 | > 21 | – | 0.061 | > 1.6 | –
4 | Cc1cc(C(=O)Nc2ccc(-c3ccccc3S(N)(=O)=O)cc2)n(-c2cccc(Cl)c2)n1 | > 21 | – | 0.037 | > 1.6 | –
5 | Cc1cc(C(=O)Nc2ccc(-c3ccccc3S(N)(=O)=O)cc2)n(-c2cccc(S(N)(=O)=O)c2)n1 | > 21 | – | 5 | – | –
6 | Cc1cc(C(=O)Nc2ccc(-c3ccccc3S(N)(=O)=O)cc2)n(-c2cccc(C(=N)NO)c2)n1 | > 21 | 7 | 0.019 | > 1.6 | –
7 | Cc1cc(C(=O)Nc2ccc(-c3ccccc3S(N)(=O)=O)cc2)n(-c2ccccc2)n1 | > 21 | – | 0.198 | > 1.6 | –
8 | Cc1cc(C(=O)Nc2ccc(-c3ccccc3S(N)(=O)=O)cc2)n(-c2ccc(N)cc2)n1 | > 21 | 4.7 | 3 | – | –
9 | Cc1cc(C(=O)Nc2ccc(-c3ccccc3S(N)(=O)=O)cc2)n(-c2cccc(S(C)=N)c2)n1 (stereo unspecified) | > 21 | – | 2.7 | – | –
10 | Cc1cc(C(=O)Nc2ccc(-c3ccccc3S(N)(=O)=O)cc2)n(-c2ccc3[nH]nc(N)c3c2)n1 | > 21 | – | 0.029 | – | –
11 | Cc1cc(C(=O)Nc2ccc(-c3ccccc3S(N)(=O)=O)cc2)n(-c2cccc(N)c2)n1 | > 21 | 4.7 | 0.063 | > 1.6 | –
12 | Cc1cc(C(=O)Nc2ccc(-c3ccccc3S(N)(=O)=O)cc2)n(-c2ccc3ccncc3c2)n1 | > 21 | 5.4 | 0.37 | > 1.6 | –
13 | Cc1cc(C(=O)Nc2ccc(-c3ccccc3S(N)(=O)=O)cc2)n(-c2ccc3ncnc(N)c3c2)n1 | > 21 | 5.7 | 0.029 | > 1.6 | –
14 | Cc1cc(C(=O)Nc2ccc(-c3ccccc3S(N)(=O)=O)cc2)n(C2CCCNC2)n1 (stereo unspecified) | > 21 | 10 | – | – | –
15 | Cc1cc(C(=O)Nc2ccc(-c3ccccc3S(N)(=O)=O)cc2)n(-c2cccc(CN)c2)n1 | > 21 | – | – | – | –

More lines, main results first:

Row | Ki [1] [µM] | pKa [2] | Ki [3] [µM] | Ki [4] [µM] | Compound | other results
16 | > 21 | 8.1 | 0.016 | > 1.6 | Cc1cc(C(=O)Nc2ccc(-c3ccccc3S(N)(=O)=O)cc2)n(-c2ccc3nc(N)nc(N)c3c2)n1 | –
17 | > 21 | – | 0.31 | – | Cc1cc(C(=O)Nc2ccc(-c3ccccc3S(N)(=O)=O)cc2)n(-c2cccc(C#N)c2)n1 | –
18 | > 21 | 4.7 | 0.6 | – | Cc1cc(C(=O)Nc2ccc(-c3ccccc3S(N)(=O)=O)cc2)n(-c2ccccc2N)n1 | –
19 | > 2.1 | 7 | 1.3 | – | Cc1cc(C(=O)Nc2ccc(-c3ccccc3S(N)(=O)=O)cc2)n(-c2ccc(N)nc2)n1 | –
20 | > 21 | < 0 | – | > 1.6 | Cc1cc(C(=O)Nc2ccc(-c3ccccc3S(N)(=O)=O)cc2)n(-c2cccc(C(N)=O)c2)n1 | half-life [5]: 3.9 h; clearance [7]: 4.67 mL/min/kg; logP [8]: 2.1; bioavailability [9]: 46%; half-life [10]: 3.1 h
21 | > 21 | – | 2.8 | > 1.6 | Cc1cc(C(=O)Nc2ccc(-c3ccccc3S(N)(=O)=O)cc2)n(-c2ccc3c(N)[nH]nc3c2)n1 | –
22 | > 21 | < 2.3 | 0.0014 | > 1.6 | Cc1cc(C(=O)Nc2ccc(-c3ccccc3S(N)(=O)=O)cc2)n(-c2ccc3onc(N)c3c2)n1 | half-life [5]: 3.2 h; Vd [6]: 0.7 L/kg; logP [11]: 2.3; clearance [7]: 5 mL/min/kg; bioavailability [9]: 26%; half-life [10]: 2.8 h
23 | 6.5 | 6.7 | 0.00033 | 2.6 | Cc1cc(C(=O)Nc2ccc(-c3ccccc3S(N)(=O)=O)cc2)n(-c2ccc3ccnc(N)c3c2)n1 | half-life [5]: 4.4 h; IC50 [12]: 0.69 µM; Vd [6]: 1.2 L/kg; clearance [7]: 5.5 mL/min/kg; logP [8]: 2.6; Binding [13]: 89%; bioavailability [14]: 13%; ID50 [15]: 1.2 µM/h/kg; half-life [10]: 3.4 h
